Data taken from patent US20230102924A1, “Methods of Treating Cancer Using Checkpoint Inhibitors in Combination with Purine Cleaving Enzymes” (priority 2020, published 2023).
Entries after “also recorded” stand apart in the source; their conditions may differ.

B1: E. coli PNP: E. coli purine nucleoside phosphorylase expressed in the EMT-6-PNP-EMU transduced tumor cell line (protein, UniProt P0ABP8 2-239, looked up)
Purine nucleoside …: ATPHINAEMGDFADVVLMPGDPLRAKYIAETFLEDAREVNNVRGMLGFTGTYKGRKISVMGHGMGIPSCSIYTKELITDFGVKKIIRVGSCGAVLPHVKLRDVVIGMGACTDSKVNRIRFKDHDFAAIADFDMVRNAVDAAKALGIDARVGNLFSADLFYSPDGEMFDVMEKYGILGVEMEAAGIYGVAAEFGAKALTICTVSDHIRTHEQTTAAERQTTFNDMIKIALESVLLGDKE

Experiments:
[1] = system: EMT-6 tumors that express E. coli PNP; assay: EMT-6 murine breast tumors expressing E. coli PNP (left flank) in mice, fludarabine phosphate plus or minus anti-CTLA4-9H10; assay type: in vivo, female BALB/c mice
Method: (§1) In order to evaluate efficacy, the parental EMT-6-EMU cell line and the EMT-6-PNP-EMU transduced cell line were evaluated. The EMT-6-PNP-EMU transduced cell line and the parental EMT-6-EMU cell line were implanted as shown below in each flank with or without dosing with fludarabine phosphate and/or anti-CTLA-4 antibody using female BALB/c mice.
(§2) Mice were implanted with EMT-6 murine tumors on both the right and left flanks. In groups 1 through 6 the right flanks were implanted with parental (non-PNP) tumors and the left flanks were implanted with tumors expressing E. coli PNP. In groups 7 through 10, both the right and left flanks were injected with parental tumors.

[2] = system: EMT-6 tumors that do not express E. coli PNP; assay: Parental EMT-6 murine breast tumors (non-PNP) in mice, fludarabine phosphate plus or minus anti-CTLA4-9H10; assay type: in vivo, female BALB/c mice; conditions: for abscopal effect on a non-PNP tumor of a contralateral PNP tumor regressing due to F-araAMP: F-araAMP 90 mg/kg with anti-CTLA4-9H10
Method: as §1, §2

[3] = FIG. 3 and 5, day 15, right flank non-PNP tumors, PNP tumor contralaterally

Molecule | effect on EMT-6 breast tumors that express E. coli PNP ([1]; FIG. 1, groups 1, 2, 4, 5, F-araAMP 75 mg/kg plus or minus anti-CTLA4-9H10, left flank tumors) | effect on EMT-6 tumors that express E. coli PNP ([1]; FIG. 2, groups 1, 3, 4, 6, F-araAMP 90 mg/kg plus or minus anti-CTLA4-9H10, left flank tumors) | PNP/fludarabine phosphate treatment in combination with an anti-CTLA4 antibody ([1]; summary of FIG. 1, 2, 3) | tumor growth, group 4 (anti-CTLA4 alone) versus group 6 (fludarabine 90 mg/kg + anti-CTLA4), all tumors included in the analysis [2, 3] | tumor growth, group 4 (anti-CTLA4 alone) versus group 6 (fludarabine 90 mg/kg + anti-CTLA4), regressed tumors removed from the analysis [2, 3] | augmentation of anti-CTLA4 antibody antitumor activity in non-PNP tumors ([2]; FIG. 3 and 5, groups 1, 3, 4, 6, F-araAMP 90 mg/kg, PNP tumor regressing contralaterally) | augmentation of anti-CTLA4 antibody activity in parental (non-PNP) tumors ([2]; FIG. 4 and 6, groups 7-10, F-araAMP 90 mg/kg, no PNP expression in the animal) | abscopal effect on a non-PNP tumor of a contralateral PNP tumor regressing due to F-araAMP ([2]; FIG. 7) | abscopal effect on a non-PNP tumor of a contralateral PNP tumor regressing due to F-araAMP ([2]; FIG. 7, listed as F-araAMP) | effect of expressing E. coli PNP in a solid breast tumor on activity of checkpoint blockade inhibitors ([1]; summary of experiments) | tumor growth, group 6 (non-PNP right flank tumor, PNP tumor contralaterally) versus group 10 (right) or group 10 (left) ([2]; FIG. 7, day 15, both groups F-araAMP 90 mg/kg + anti-CTLA4-9H10)
Nc1nc(F)nc2c1ncn2[C@@H]1O[C@H](COP(=O)(O)O)[C@@H](O)[C@@H]1O [fludarabine phosphate, 2-fluoro-9-(5-O-phosphono-β-D-arabinofuranosyl)-9H-purin-6-amine] | effective | effective | improve | not significantly different | significantly different | augments | augments; also recorded: enhances | strong abscopal effect; also recorded: inhibits | abscopal effect | – | –
B1 | – | – | – | – | – | – | – | – | – | augments | significantly different
